This passage reports IC50 results from US6916837B2, “Amidino derivatives and anticoagulants and thrombosis therapeutic agents containing them” (Eisai Co., Ltd., priority 2001, dated 2005).

pIC50: −log10 of the molar value. Where a name gives a salt, the structure may show the parent alone.

The experiment concerns the target T1, human blood clotting factor VIIa (Homo sapiens, UniProt P08709).
T1 construct: 5 nM human blood clotting factor VIIa
The experiment is described as follows: Inhibiting activity against blood clotting factor VIIa (Spectrozyme VII chromogenic assay). In kind it is biochemical. The settings on record: 10 nM human tissue factor, 5 nM human blood clotting factor VIIa, Spectrozyme VII substrate, 40 minutes at room temperature, absorbance 405 nm. Here is the method: Pharmacological Activity Test (Inhibiting Activity Against Blood Clotting Factor VIIa)
Compounds of the present invention (Examples 1-4, 1-26, 1-39, 1-40 and 8-3) were each dissolved in dimethyl sulfoxide to 5 mg/ml, and then each solution was diluted 50-fold with reaction buffer to prepare a 100 μg/ml solution (2% dimethyl sulfoxide solution) Also, a 10-fold dilution series with reaction buffer was prepared with the compound solutions from 100 μg/ml to 1 ng/ml. Separately, dimethyl sulfoxide alone was diluted 50-fold with reaction buffer to prepare a 2% dimethyl sulfoxide solution as a control. The composition of the reaction buffer was 50 mM Tris-acetate (pH 7.5), 15 mM calcium chloride (CaCl2), 0.15 M sodium chloride (NaCl) and 6 mg/ml Cephalin. There were also added to the buffer 10 nM human tissue factor (TF) and 5 nM human blood clotting factor VIIa, to prepare enzyme solutions. After separating off 65 μl of each solution, a 10 μl portion of the 2% dimethyl sulfoxide solution of each compound of the invention was added and preincubation was performed at room temperature. As a substrate there was added 25 μl of 1.0 mM Spectrozyme VII, and reaction was conducted for 40 minutes at room temperature. The enzyme reaction rate was quantified by the change ion absorbance of released 4-nitroanilide at 405 nm.
For measurement of the inhibiting activity against human blood clotting factor VIIa, the enzyme reaction rate was determined in the presence of the above-mentioned compounds of the present invention from 10 μg/ml to 0.1 ng/ml. The IC50 values were calculated based on nonlinear regression analysis, as an index of the inhibiting activity against human blood clotting factor VIIa.

T1 sequence (P08709 213-466 limits assumed): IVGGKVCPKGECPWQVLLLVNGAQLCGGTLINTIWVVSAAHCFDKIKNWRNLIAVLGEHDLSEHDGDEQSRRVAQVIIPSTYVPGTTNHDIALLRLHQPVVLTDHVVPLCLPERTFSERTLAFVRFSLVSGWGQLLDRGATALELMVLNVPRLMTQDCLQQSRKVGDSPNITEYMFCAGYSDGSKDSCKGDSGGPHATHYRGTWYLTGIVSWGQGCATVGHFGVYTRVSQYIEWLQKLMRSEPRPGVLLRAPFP
T1 sequence (P08709 61-212 limits assumed): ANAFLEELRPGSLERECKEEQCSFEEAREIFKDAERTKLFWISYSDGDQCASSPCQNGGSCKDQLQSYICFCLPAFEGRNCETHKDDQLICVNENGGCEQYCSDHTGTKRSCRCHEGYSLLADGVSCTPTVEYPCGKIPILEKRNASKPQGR
T1 sequence (P13726 33-295 partner): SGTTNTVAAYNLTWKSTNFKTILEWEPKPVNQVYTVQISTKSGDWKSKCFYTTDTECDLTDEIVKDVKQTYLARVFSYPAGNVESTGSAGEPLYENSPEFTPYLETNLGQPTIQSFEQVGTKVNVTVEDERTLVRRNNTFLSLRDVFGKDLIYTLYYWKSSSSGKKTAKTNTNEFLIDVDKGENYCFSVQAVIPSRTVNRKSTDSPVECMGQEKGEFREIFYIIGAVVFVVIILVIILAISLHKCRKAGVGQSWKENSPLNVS

`N=C(N)c1ccc2cc(Oc3ccc(NS(=O)(=O)c4ccc5ccccc5c4)cc3C(=O)O)ccc2c1` [Example 1-4, 2-(6-amidino-2-naphthyloxy)-5-(2-naphthalenesulfonyl)aminobenzoic acid trifluoroacetate]: the pIC50 is 5.84.
Consider `COc1ccc(S(=O)(=O)Nc2ccc(Oc3ccc4cc(C(=N)N)ccc4c3)c(-c3ccccc3C(=O)O)c2)cc1` [Example 1-26, 2′-(6-amidino-2-naphthyloxy)-5′-(4-methoxybenzenesulfonyl)amino-1,1′-biphenyl-2-carboxylic acid trifluoroacetate], for which the pIC50 is 6.68. This pIC50 is 0.84 log units higher than that of the molecule before.
In turn, `CC(=O)N1CCc2ccc(S(=O)(=O)Nc3ccc(Oc4ccc5cc(C(=N)N)ccc5c4)c(-c4ccccc4C(=O)O)c3)cc2C1` [Example 1-39, 2′-(6-amidino-2-naphthyloxy)-5′-[1,2,3,4-tetrafluoro-2-(acetyl)isoquinoline-7-sulfonyl)amino-1,1′-biphenyl-2-carboxylic acid trifluoroacetate] had a pIC50 of 7.52.
`Cc1ccc(S(=O)(=O)Nc2ccc(Oc3ccc4cc(C(=N)N)ccc4c3)c(-c3ccccc3C(=O)O)c2)cc1Cl` [Example 1-40, 2′-(6-amidino-2-naphthyloxy)-5′-(3-chloro-4-methylbenzenesulfonyl)amino-1,1′-biphenyl-2-carboxylic acid trifluoroacetate] had a negative-log IC50 (pIC50) of 7.40.
The molecule `Cc1ccc(S(=O)(=O)Nc2ccc(Oc3ccc4cc(C(=N)N)ccc4c3)c(-c3ccc(C(=O)NCC(C)C)cc3C(=O)O)c2)cc1Cl` [Example 8-3, 2′-(6-amidino-2-naphthyloxy)-4-(2-methylpropylcarbamoyl)-5′-(3-chloro-4-methylbenzenesulfonyl)amino-1,1′-biphenyl-2-carboxylic acid trifluoroacetate] had a negative logarithm of the IC50 (pIC50) of 8.40.

Usually pIC50 stands for the IC50 on a negative log10 scale, so that one unit is a factor of ten.
